From ChEMBL document CHEMBL3769388, “Optimization of a Dicarboxylic Series for in Vivo Inhibition of Citrate Transport by the Solute Carrier 13 (SLC13) Family” (J Med Chem, 2016)
In brackets after ≈: the same amount, converted by molar mass. Activity calls are given as the source filed them. No cut-off for these calls is given here.

How the values were obtained:
[1] = molecular target: Na(+)/citrate cotransporter (Homo sapiens, UniProt Q86YT5); test: Inhibition of NaCT in human hepatocytes assessed as [14C]-citrate uptake after 30 mins by scintillation counting method; assay type: cell-based, Hepatocyte
[2] = Passive permeability in MDCK cells; assay type: ADME, cell-based, Canis lupus familiaris; details: dog
[3] = molecular target: Na(+)/citrate cotransporter (Rattus norvegicus, UniProt Q8CJ44); test: Inhibition of NaCT in rat hepatocytes assessed as [14C]-citrate uptake after 30 mins by scintillation counting method; assay type: cell-based, Hepatocyte
[4] = Clearance in mouse hepatocytes assessed per 10^6 cells; assay type: ADME, cell-based, Hepatocyte; details: read-out: CLH
[5] = Clearance in rat hepatocytes assessed per 10^6 cells; assay type: ADME, cell-based, Hepatocyte; details: read-out: CLH
Rattus norvegicus = test: Decrease in [14C]citrate uptake in iv dosed Wistar Han rat testis measured after 185 to 200 mins by scintillation counting method; assay type: functional, organism-based
[6] = Fraction unbound in Wistar Han rat by equilibrium dialysis method; assay type: ADME
[7] = AUC(0 to t) in Wistar Han rat at 5 mg/kg, po by LC-MS/MS analysis; assay type: ADME, organism-based; details: in vivo
Mus musculus [8] = test: Decrease in fasting glucose levels in DIO C57/B6 mouse model in basal portion at 44 mg/kg/hr for 90 mins; assay type: functional, organism-based
Mus musculus [9] = test: Increase in urinary citrate output in C57BL/6J mouse at 250 mg/kg, po measured after 7 hrs by UPLC-MS/MS analysis; assay type: functional, Urine
[10] = molecular target: Angiotensin-converting enzyme (Homo sapiens) (UniProt P12821); test: Inhibition of ACE1 (unknown origin)
[11] = molecular target: Acetylcholinesterase (Homo sapiens) (UniProt P22303); test: Inhibition of ACHE (unknown origin)
[12] = molecular target: ATP-citrate synthase (Homo sapiens) (UniProt P53396); test: Inhibition of ACL (unknown origin) upto 30 uM
Cytochrome P450 2C9 = Cytochrome P450 2C9 (Homo sapiens, UniProt P11712); test: Inhibition of CYP2C9 (unknown origin); assay type: ADME
Cytochrome P450 3A4 = Cytochrome P450 3A4 (Homo sapiens, UniProt P08684); test: Inhibition of CYP3A4 (unknown origin); assay type: ADME
[13] = molecular target: Tyrosine-protein kinase Lck (Homo sapiens) (UniProt P06239); test: Inhibition of LCK (unknown origin)
[14] = molecular target: Amine oxidase [flavin-containing] A (Homo sapiens, UniProt P21397); test: Inhibition of MAOA (unknown origin)
[15] = molecular target: Mitogen-activated protein kinase 14 (Homo sapiens) (UniProt Q16539); test: Inhibition of MAPK14/P38-alpha (unknown origin)
[16] = molecular target: cGMP-specific 3',5'-cyclic phosphodiesterase (Homo sapiens) (UniProt O76074); test: Inhibition of PDE5A1 (unknown origin)
Bile salt export pump = Bile salt export pump (Homo sapiens, UniProt O95342); test: Inhibition of ABCB11 (unknown origin)
[17] = molecular target: High affinity choline transporter 1 (Homo sapiens) (UniProt Q9GZV3); test: Inhibition of choline transporter 1 (unknown origin)
[18] = molecular target: Sodium-dependent dopamine transporter (Homo sapiens) (UniProt Q01959); test: Inhibition of DAT (unknown origin)
[19] = molecular target: Voltage-gated inwardly rectifying potassium channel KCNH2 (Homo sapiens, UniProt Q12809); test: Inhibition of human ERG
[20] = molecular target: Sodium-dependent noradrenaline transporter (Homo sapiens) (UniProt P23975); test: Inhibition of NAT (unknown origin)
[21] = molecular target: Sodium-dependent phosphate transport protein 1 (Homo sapiens) (UniProt Q14916); test: Inhibition of NaPiA1 (unknown origin)
[22] = molecular target: Sodium-dependent serotonin transporter (Homo sapiens) (UniProt P31645); test: Inhibition of 5HTT (unknown origin)
[23] = molecular target: Sodium channel protein type 1 subunit alpha (Homo sapiens) (UniProt P35498); test: Inhibition of NaV1.1 (unknown origin)
[24] = molecular target: Adenosine receptor A1 (Homo sapiens) (UniProt P30542); test: Inhibition of ADORA1 (unknown origin)
[25] = molecular target: Alpha-1A adrenergic receptor (Homo sapiens) (UniProt P35348); test: Inhibition of ADRA1A (unknown origin)
[26] = molecular target: Beta-1 adrenergic receptor (Homo sapiens) (UniProt P08588); test: Inhibition of ADRB1 (unknown origin)
[27] = molecular target: Cannabinoid receptor 1 (Homo sapiens) (UniProt P21554); test: Inhibition of CB1 (unknown origin)
[28] = molecular target: Gastrin/cholecystokinin type B receptor (Homo sapiens) (UniProt P32239); test: Inhibition of CCKBR (unknown origin)
[29] = molecular target: D(1A) dopamine receptor (Homo sapiens) (UniProt P21728); test: Inhibition of D1 (unknown origin)
[30] = molecular target: D(2) dopamine receptor (Homo sapiens) (UniProt P14416); test: Inhibition of D2 (unknown origin)
[31] = molecular target: Endothelin-1 receptor (Homo sapiens) (UniProt P25101); test: Inhibition of ETA (unknown origin)
[32] = molecular target: Epidermal growth factor receptor (Homo sapiens) (UniProt P00533); test: Inhibition of EGFR (unknown origin)
[33] = molecular target: Gamma-aminobutyric acid receptor subunit alpha-1 (Homo sapiens) (UniProt P14867); test: Inhibition of GABRA1 (unknown origin)
[34] = molecular target: Glucocorticoid receptor (Homo sapiens) (UniProt P04150); test: Inhibition of GR (unknown origin)
[35] = molecular target: Histamine H1 receptor (Homo sapiens) (UniProt P35367); test: Inhibition of H1 (unknown origin)
[36] = molecular target: Histamine H2 receptor (Homo sapiens) (UniProt P25021); test: Inhibition of H2 (unknown origin)
[37] = molecular target: Histamine H3 receptor (Homo sapiens) (UniProt Q9Y5N1); test: Inhibition of H3 (unknown origin)
[38] = molecular target: Substance-P receptor (Homo sapiens) (UniProt P25103); test: Inhibition of NK1 receptor (unknown origin)
[39] = molecular target: Neuronal acetylcholine receptor; alpha4/beta2 (Homo sapiens) (UniProt P17787+P43681); test: Inhibition of alpha-4/beta-2 (unknown origin); assay type: protein-complex assay
[40] = molecular target: Kappa-type opioid receptor (Homo sapiens) (UniProt P41145); test: Inhibition of OPRK1 (unknown origin)
[41] = molecular target: Mu-type opioid receptor (Homo sapiens) (UniProt P35372); test: Inhibition of MOP (unknown origin)
[42] = molecular target: 5-hydroxytryptamine receptor 1A (Homo sapiens) (UniProt P08908); test: Inhibition of 5HT1A (unknown origin)
[43] = molecular target: 5-hydroxytryptamine receptor 1B (Homo sapiens) (UniProt P28222); test: Inhibition of 5HT1B (unknown origin)
[44] = molecular target: 5-hydroxytryptamine receptor 2A (Homo sapiens) (UniProt P28223); test: Inhibition of 5HT2A receptor (unknown origin)
[45] = molecular target: 5-hydroxytryptamine receptor 2B (Homo sapiens) (UniProt P41595); test: Inhibition of 5HT2B receptor (unknown origin)
[46] = molecular target: 5-hydroxytryptamine receptor 3A (Homo sapiens) (UniProt P46098); test: Inhibition of 5HT3 receptor (unknown origin)
[47] = Thermodynamic solubility of compound in aqueous solution at pH 6.5; assay type: physicochemical; details: read-out: Therm_solubility

Sequence of Sodium-dependent noradrenaline transporter (Homo sapiens) (P23975 whole entry): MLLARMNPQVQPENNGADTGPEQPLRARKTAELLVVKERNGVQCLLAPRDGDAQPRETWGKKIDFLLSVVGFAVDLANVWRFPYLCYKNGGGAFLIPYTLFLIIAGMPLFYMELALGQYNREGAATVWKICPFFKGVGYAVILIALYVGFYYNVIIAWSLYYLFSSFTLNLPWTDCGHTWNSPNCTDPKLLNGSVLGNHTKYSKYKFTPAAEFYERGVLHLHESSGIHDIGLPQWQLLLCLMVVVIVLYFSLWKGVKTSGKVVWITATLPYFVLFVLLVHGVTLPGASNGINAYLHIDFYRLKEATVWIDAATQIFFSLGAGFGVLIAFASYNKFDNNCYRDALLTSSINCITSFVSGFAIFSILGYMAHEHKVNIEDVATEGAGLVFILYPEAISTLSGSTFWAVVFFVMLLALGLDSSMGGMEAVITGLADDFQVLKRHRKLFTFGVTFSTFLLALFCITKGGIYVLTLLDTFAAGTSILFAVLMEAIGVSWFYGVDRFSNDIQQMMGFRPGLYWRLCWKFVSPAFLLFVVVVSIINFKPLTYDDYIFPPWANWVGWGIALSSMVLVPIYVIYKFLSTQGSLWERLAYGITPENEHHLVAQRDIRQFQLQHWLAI
Sequence of D(1A) dopamine receptor (Homo sapiens) (P21728 whole entry): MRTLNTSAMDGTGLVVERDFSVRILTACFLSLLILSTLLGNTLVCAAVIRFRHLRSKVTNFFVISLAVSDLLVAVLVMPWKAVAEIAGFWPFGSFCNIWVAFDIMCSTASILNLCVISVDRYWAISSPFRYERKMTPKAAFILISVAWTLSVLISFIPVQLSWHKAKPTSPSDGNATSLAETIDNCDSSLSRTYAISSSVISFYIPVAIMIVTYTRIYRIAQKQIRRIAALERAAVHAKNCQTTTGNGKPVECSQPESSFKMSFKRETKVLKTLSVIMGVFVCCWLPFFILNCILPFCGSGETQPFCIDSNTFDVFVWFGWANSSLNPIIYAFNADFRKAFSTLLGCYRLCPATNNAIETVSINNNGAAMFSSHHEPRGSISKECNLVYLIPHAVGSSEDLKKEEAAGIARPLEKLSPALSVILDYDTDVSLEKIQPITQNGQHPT
Sequence of Sodium-dependent serotonin transporter (Homo sapiens) (P31645 whole entry, looked up): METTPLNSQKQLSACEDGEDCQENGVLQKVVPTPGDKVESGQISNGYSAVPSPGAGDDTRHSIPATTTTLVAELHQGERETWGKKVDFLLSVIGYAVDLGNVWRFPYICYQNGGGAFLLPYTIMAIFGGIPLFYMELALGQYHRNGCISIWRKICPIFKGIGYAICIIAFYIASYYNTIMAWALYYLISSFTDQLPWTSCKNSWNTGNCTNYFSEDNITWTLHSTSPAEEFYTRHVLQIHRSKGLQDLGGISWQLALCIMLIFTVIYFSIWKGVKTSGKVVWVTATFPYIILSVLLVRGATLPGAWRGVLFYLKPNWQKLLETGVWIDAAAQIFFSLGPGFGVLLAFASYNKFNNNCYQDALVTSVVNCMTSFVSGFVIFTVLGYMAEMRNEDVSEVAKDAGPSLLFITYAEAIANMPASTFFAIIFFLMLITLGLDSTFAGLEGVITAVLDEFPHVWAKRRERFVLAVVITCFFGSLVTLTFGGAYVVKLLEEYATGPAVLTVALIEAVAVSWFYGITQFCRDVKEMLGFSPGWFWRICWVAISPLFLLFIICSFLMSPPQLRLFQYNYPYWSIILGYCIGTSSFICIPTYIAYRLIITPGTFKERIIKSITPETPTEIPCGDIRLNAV
Sequence of Sodium-dependent dopamine transporter (Homo sapiens) (Q01959 whole entry): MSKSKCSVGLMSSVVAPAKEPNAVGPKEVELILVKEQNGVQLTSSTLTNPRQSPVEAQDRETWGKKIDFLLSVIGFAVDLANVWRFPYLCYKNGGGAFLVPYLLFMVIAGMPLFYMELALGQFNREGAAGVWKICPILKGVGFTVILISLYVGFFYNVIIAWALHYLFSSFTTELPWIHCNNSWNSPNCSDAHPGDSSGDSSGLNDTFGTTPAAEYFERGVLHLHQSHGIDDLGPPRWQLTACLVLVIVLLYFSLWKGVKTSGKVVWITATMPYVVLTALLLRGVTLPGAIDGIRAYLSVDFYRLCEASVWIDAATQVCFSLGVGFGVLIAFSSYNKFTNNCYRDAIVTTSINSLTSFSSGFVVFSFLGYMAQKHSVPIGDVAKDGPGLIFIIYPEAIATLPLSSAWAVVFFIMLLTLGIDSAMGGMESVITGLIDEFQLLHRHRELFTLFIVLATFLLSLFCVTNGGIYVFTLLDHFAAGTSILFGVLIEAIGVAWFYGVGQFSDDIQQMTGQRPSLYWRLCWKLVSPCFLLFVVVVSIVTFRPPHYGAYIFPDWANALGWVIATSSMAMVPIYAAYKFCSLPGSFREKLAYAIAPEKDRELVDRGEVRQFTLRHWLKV
Sequence of Gamma-aminobutyric acid receptor subunit alpha-1 (Homo sapiens) (P14867 whole entry): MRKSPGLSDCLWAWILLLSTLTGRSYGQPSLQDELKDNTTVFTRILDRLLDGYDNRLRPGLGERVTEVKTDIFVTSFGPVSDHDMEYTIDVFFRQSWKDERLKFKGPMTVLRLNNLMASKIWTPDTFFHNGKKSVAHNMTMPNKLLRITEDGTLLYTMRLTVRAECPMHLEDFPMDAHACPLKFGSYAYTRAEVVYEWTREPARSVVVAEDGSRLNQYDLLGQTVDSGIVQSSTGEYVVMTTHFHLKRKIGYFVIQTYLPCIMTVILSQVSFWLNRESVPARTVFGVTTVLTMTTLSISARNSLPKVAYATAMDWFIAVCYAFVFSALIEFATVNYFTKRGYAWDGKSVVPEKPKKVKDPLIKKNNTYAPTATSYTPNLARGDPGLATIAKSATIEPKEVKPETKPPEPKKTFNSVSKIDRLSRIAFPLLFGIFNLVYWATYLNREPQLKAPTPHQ
Sequence of Angiotensin-converting enzyme (Homo sapiens) (P12821 whole entry): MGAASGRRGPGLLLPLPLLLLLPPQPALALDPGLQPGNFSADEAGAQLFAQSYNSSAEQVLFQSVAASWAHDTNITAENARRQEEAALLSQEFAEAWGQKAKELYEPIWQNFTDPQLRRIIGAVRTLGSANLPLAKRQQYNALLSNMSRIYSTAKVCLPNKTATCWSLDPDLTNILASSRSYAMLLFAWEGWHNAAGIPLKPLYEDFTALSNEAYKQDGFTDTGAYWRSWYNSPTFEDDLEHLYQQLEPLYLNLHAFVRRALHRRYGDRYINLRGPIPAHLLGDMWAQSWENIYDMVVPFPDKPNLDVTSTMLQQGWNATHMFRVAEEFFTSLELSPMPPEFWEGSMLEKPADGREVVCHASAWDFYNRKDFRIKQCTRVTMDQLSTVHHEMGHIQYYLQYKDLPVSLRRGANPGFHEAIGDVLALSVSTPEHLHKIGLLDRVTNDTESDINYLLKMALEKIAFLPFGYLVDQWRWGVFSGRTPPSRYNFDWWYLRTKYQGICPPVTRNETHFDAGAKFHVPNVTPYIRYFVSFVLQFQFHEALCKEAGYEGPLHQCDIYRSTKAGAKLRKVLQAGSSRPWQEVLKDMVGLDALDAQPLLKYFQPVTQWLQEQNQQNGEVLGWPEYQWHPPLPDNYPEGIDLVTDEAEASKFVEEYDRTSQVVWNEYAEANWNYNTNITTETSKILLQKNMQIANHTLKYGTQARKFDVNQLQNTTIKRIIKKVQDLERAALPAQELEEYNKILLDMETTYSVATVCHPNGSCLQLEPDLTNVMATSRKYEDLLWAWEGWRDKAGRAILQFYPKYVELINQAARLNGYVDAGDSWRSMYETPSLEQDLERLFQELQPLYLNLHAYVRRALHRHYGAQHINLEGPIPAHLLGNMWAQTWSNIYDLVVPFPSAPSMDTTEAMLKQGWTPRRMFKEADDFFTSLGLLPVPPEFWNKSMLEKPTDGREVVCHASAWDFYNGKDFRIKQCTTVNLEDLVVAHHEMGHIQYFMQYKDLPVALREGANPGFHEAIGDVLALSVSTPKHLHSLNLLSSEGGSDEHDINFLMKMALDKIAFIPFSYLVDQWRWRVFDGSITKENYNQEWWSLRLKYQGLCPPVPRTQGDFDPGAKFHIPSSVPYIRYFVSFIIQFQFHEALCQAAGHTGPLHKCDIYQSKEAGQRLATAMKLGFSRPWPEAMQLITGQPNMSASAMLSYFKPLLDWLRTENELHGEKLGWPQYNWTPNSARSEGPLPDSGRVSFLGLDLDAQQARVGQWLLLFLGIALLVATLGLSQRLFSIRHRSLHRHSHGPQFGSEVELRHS
Sequence of 5-hydroxytryptamine receptor 2B (Homo sapiens) (P41595 whole entry): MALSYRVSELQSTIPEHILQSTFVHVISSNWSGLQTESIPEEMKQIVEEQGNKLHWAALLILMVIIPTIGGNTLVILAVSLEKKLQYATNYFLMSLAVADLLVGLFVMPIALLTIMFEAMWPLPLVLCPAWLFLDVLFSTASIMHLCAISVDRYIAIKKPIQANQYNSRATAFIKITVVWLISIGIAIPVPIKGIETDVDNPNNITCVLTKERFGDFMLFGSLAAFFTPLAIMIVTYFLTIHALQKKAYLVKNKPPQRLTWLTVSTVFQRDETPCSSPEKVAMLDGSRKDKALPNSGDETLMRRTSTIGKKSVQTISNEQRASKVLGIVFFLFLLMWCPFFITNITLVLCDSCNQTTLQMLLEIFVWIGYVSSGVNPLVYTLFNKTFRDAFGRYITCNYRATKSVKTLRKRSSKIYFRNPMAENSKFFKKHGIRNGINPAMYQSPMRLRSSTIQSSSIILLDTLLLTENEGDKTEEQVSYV
Sequence of 5-hydroxytryptamine receptor 1A (Homo sapiens) (P08908 whole entry): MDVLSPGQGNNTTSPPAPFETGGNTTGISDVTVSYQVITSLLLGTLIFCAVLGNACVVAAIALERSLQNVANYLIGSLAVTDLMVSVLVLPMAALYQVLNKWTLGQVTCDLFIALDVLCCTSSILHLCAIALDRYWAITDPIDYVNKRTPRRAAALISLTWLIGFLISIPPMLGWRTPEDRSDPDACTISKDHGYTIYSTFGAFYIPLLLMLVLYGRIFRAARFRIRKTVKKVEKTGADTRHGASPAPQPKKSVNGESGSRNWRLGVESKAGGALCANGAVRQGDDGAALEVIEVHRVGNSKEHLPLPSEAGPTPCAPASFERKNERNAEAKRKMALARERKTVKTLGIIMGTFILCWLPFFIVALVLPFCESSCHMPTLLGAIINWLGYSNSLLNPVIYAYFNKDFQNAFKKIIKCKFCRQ

COc1ncc(C)cc1CC[C@@](O)(CC(=O)O)C(=O)O
IC50 [1]: 740 nM | Papp [2]: 0.3 ×10⁻⁶ cm/s | IC50 [3]: 120 nM | hepatocyte CLint [4]: < 6 µL/min/1e6 cells | hepatocyte CLint [5]: < 6 µL/min/1e6 cells | IC50 (Rattus norvegicus): 1000 nM | fraction unbound [6]: 0.135 | AUC(0-t) [7]: 4890 ng·h/mL | inhibition (Mus musculus [8]): Active | fold change (FC) (Mus musculus [9]): 230 | inhibition [10]: inactive | inhibition [11]: inactive | inhibition [12]: inactive | inhibition (INH) (Cytochrome P450 2C9): Not Active | inhibition (INH) (Cytochrome P450 3A4): Not Active | inhibition [13]: inactive | inhibition (INH) [14]: Not Active | inhibition [15]: inactive | inhibition [16]: inactive | inhibition (INH) (Bile salt export pump): Not Active | inhibition [17]: inactive | inhibition [18]: inactive | inhibition (INH) [19]: Not Active | inhibition [20]: inactive | inhibition [21]: inactive | inhibition [22]: inactive | inhibition [23]: inactive | inhibition [24]: inactive | inhibition [25]: inactive | inhibition [26]: inactive | inhibition [27]: inactive | inhibition [28]: inactive | inhibition [29]: inactive | inhibition [30]: inactive | inhibition [31]: inactive | inhibition [32]: inactive | inhibition [33]: inactive | inhibition [34]: inactive | inhibition [35]: inactive | inhibition [36]: inactive | inhibition [37]: inactive | inhibition [38]: inactive | inhibition [39]: inactive | inhibition [40]: inactive | inhibition [41]: inactive | inhibition [42]: inactive | inhibition [43]: inactive | inhibition [44]: inactive | inhibition [45]: inactive | inhibition [46]: inactive | solubility thermodynamic [47]: 24 µM (≈ 6.8 µg/mL)
